Reference: patent US8198279B2, “Pyrido[2,3-b]pyrazin-8-substituted compounds and their use” (Institute of Cancer Research: Royal Cancer Hospital (The), priority 2007, dated 2012)
Values joined by “and” are separate entries in the source; they are usually repeats but may differ in a detail not shown here. Equal values may be shown once.

Target: T1, B-RAF (Homo sapiens, UniProt P15056, V600E)
T1 construct: made in house
Assay: DELFIA Kinase Assay
Format: biochemical
Conditions: 100 μM ATP, GST-MEK substrate
Protocol: Biological Methods—DELFIA Kinase Assay
Compounds were assessed by a kinase assay performed according to the following protocol.
DKB1 (DKB with B-RAF and MEK Protein):
Combine 4950 μL of DKB and 50 μL of 2.5 mg/ml GST-MEK stock (to give […] of MEK per 40 μL). Then add 22.5 μL of B-RAF to give ˜0.2 μL of B-RAF per 40 μL.
100 mM stock, dilute to 500 μM to give 100 μM final concentration in assay.
• 1. Preblock wells with 5% milk in TBS for 1 hour. • 2. Wash wells with 3× with 200 μL TBS. • 3. Plate out 40 μL of DKB1 for all inhibitors (test compounds), DMSO control, and optionally other control compounds. • 4. Plate out 40 μL of DKB2 for BO and EV wells. • 5. Add inhibitors (test compounds) at 0.5 μL per well according to desired plate layout. • 6. Add 0.5 μL DMSO to vehicle control wells. • 7. Add 2 μL of B-RAF to BO and EV wells. • 8. Pre-incubate with inhibitors (test compounds) for 10 minutes at room temperature with shaking. • 9. Add 10 μL of 500 μM ATP stock, in DKB, to give 100 μM assay concentration. • 10. Seal plates with TopSeal and incubate at room temperature with shaking for 45 minutes. • 11. Wash plates 3× with 200 μL 0.1% Tween20/Water to terminate reaction. • 12. Add 50 μL per well of antibody mix and incubate for 1 hour at room temperature with shaking. • 13. Wash plates 3× with 200 μL 0.1% Tween20/Water. • 14. Add 100 μL DELFIA enhancement solution per well, cover in foil, and incubate at room temperature for 30 minutes with shaking. • 15. Read on Victor using Europium protocol.
Values for the blank (Empty Vector) are subtracted from all values. The DMSO controls are set as 100% activity and assay points (the response) are calculated as a percentage of the DMSO control. Data are plotted using Graphpad Prism software and a non-linear regression line is calculated using a variable slope sigmoidal dose-response equation (Y=Bottom+(Top−Bottom)/(1+10^((LogEC50−X)*HillSlope)) where X is the logarithm of concentration. Y is the response). The IC50 generated by this procedure is the concentration of the drug that produces a percentage control fluorescence value midway between the saturation, and zero-effect plateaus. Three independent assays are usually performed and the mean IC50 is reported.

T1 sequence (P15056 whole entry V600E): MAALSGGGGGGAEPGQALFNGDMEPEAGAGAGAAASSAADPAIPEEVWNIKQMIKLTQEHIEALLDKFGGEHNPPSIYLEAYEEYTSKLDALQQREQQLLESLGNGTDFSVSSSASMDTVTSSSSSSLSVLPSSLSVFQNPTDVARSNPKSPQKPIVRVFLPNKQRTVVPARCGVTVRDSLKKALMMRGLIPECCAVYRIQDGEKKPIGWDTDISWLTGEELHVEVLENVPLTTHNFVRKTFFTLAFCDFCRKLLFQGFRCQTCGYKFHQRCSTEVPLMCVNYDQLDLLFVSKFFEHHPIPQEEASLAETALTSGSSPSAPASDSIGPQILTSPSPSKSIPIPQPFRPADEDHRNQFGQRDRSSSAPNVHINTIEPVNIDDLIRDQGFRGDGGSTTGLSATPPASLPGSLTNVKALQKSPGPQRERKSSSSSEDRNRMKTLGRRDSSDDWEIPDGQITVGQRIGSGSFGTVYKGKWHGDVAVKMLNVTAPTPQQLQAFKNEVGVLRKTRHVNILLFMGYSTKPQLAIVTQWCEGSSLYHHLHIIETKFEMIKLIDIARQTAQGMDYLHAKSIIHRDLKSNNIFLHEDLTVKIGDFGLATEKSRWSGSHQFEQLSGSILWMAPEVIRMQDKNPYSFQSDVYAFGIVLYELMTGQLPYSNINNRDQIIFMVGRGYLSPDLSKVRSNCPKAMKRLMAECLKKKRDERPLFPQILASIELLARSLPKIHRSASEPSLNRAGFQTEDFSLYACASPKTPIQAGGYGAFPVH

**Q.** With `CC(C)(C)c1cc(NC(=O)c2cccc(Oc3ccnc4[nH]c(=O)cnc34)c2)n(-c2ccccc2)n1` [AA-001, N-(3-tert-butyl-1-phenyl-1H-pyrazol-5-yl)-3-(3-oxo-3,4-dihydropyrido[2,3-b]pyrazin-8-yloxy)benzamide] as the compound, how does the IC50 read?
**A.** < 1000 nM and 100 to 1000 nM

**Q.** Which IC50 does the source give for `O=C(Nc1cccc(Oc2ccnc3[nH]c(=O)cnc23)c1)c1cccc(OC(F)(F)F)c1` [AA-002, N-(3-(3-oxo-3,4-dihydropyrido[2,3-b]pyrazin-8-yloxy)phenyl)-3-(trifluoro-methoxy)benzamide] here?
**A.** < 100 nM

**Q.** For `CC(C)(C)c1cccc(C(=O)Nc2cccc(Oc3ccnc4[nH]c(=O)cnc34)c2)c1` [AA-003, 3-tert-butyl-N-(3-(3-oxo-3,4-dihydropyrido[2,3-b]pyrazin-8-yloxy)phenyl)benzamide], which IC50 is on record?
**A.** < 100 nM

**Q.** For `Cc1nc2c(Oc3cccc(NC(=O)c4cccc(OC(F)(F)F)c4)c3)ccnc2[nH]c1=O` [AA-004], which IC50 is on record?
**A.** < 100 nM

**Q.** `Cc1nc2c(Oc3cccc(NC(=O)c4cccc(C(C)(C)C)c4)c3)ccnc2[nH]c1=O` [AA-005, 3-tert-butyl-N-(3-(2-methyl-3-oxo-3,4-dihydropyrido[2,3-b]pyrazin-8-yloxy)phenyl)benzamide] was tested. Which IC50 did it give?
**A.** < 100 nM

**Q.** For `Cc1ccc(-n2nc(C(C)(C)C)cc2NC(=O)Nc2cccc(Oc3ccnc4[nH]c(=O)cnc34)c2)cc1` [AA-006, 1-(3-tert-butyl-1-p-tolyl-1H-pyrazol-5-yl)-3-(3-(3-oxo-3,4-dihydropyrido[2,3-b]pyrazin-8-yloxy)phenyl)urea], which IC50 is on record?
**A.** < 100 nM

**Q.** `CC(C)(C)c1cc(NC(=O)Nc2ccc(Oc3ccnc4[nH]c(=O)cnc34)c3ccccc23)n(-c2ccccc2)n1` [AA-008, 1-(3-tert-butyl-1-phenyl-1H-pyrazol-5-yl)-3-(4-(3-oxo-3,4-dihydropyrido[2,3-b]pyrazin-8-yloxy)naphthalen-1-yl)urea] was tested. Which IC50 did it give?
**A.** < 100 nM

**Q.** With `Cc1nc2c(Oc3ccc(NC(=O)Nc4cc(C(C)(C)C)nn4-c4ccccc4)c4ccccc34)ccnc2[nH]c1=O` [AA-009, 1-(3-tert-butyl-1-phenyl-1H-pyrazol-5-yl)-3-(4-(2-methyl-3-oxo-3,4-dihydropyrido[2,3-b]pyrazin-8-yloxy)naphthalen-1-yl)urea] as the compound, how does the IC50 read?
**A.** < 100 nM

**Q.** With `Cc1ccc(-n2nc(C(C)(C)C)cc2NC(=O)Nc2ccc(Oc3ccnc4[nH]c(=O)cnc34)c3ccccc23)cc1` [AA-010, 1-(3-tert-butyl-1-p-tolyl-1H-pyrazol-5-yl)-3-(4-(3-oxo-3,4-dihydropyrido[2,3-b]pyrazin-8-yloxy)naphthalen-1-yl)urea] as the compound, how does the IC50 read?
**A.** < 100 nM

**Q.** For `Cc1ccc(-n2nc(C(C)(C)C)cc2NC(=O)Nc2ccc(Oc3ccnc4[nH]c(=O)c(C)nc34)c3ccccc23)cc1` [AA-011, 1-(3-tert-butyl-1-p-tolyl-1H-pyrazol-5-yl)-3-(4-(2-methyl-3-oxo-3,4-dihydropyrido[2,3-b]pyrazin-8-yloxy)naphthalen-1-yl)urea], which IC50 is on record?
**A.** < 100 nM

**Q.** How did the IC50 turn out when `Cc1nc2c(Oc3ccc(NC(=O)Nc4cc(C(F)(F)F)ccc4F)c4ccccc34)ccnc2[nH]c1=O` [AA-014, 1-(2-fluoro-5-(trifluoromethyl)phenyl)-3-(4-(2-methyl-3-oxo-3,4-dihydropyrido[2,3-b]pyrazin-8-yloxy)naphthalen-1-yl)urea] was run?
**A.** < 100 nM

**Q.** Which IC50 does the source give for `Nc1nc2c(Oc3ccc(NC(=O)Nc4cc(C(F)(F)F)ccc4F)c4ccccc34)ccnc2[nH]c1=O` [AA-015, 1-(4-(2-amino-3-oxo-3,4-dihydropyrido[2,3-b]pyrazin-8-yloxy)naphthalen-1-yl)-3-(2-fluoro-5-(trifluoromethyl)phenyl)urea] here?
**A.** < 100 nM

**Q.** For `Cc1ccc(-n2nc(C(C)(C)C)cc2NC(=O)Nc2ccc(Oc3ccnc4[nH]c(=O)cnc34)cc2)cc1` [AA-016, 1-(3-tert-butyl-1-p-tolyl-1H-pyrazol-5-yl)-3-(4-(3-oxo-3,4-dihydropyrido[2,3-b]pyrazin-8-yloxy)phenyl)urea], which IC50 is on record?
**A.** < 1000 nM and 100 to 1000 nM and 252 nM

**Q.** `CSc1cc(Oc2ccnc3[nH]c(=O)cnc23)ccc1NC(=O)Nc1cc(C(C)(C)C)nn1-c1ccc(C)cc1` [AA-017, 1-(3-tert-butyl-1-p-tolyl-1H-pyrazol-5-yl)-3-(2-(methylthio)-4-(3-oxo-3,4-dihydropyrido[2,3-b]pyrazin-8-yloxy)phenyl)urea] was tested. Which IC50 did it give?
**A.** < 100 nM

**Q.** Which IC50 does the source give for `Cc1ccc(-n2nc(C(C)(C)C)cc2NC(=O)Nc2ccc(Oc3ccnc4[nH]c(=O)cnc34)cc2F)cc1` [AA-018, 1-(3-tert-butyl-1-p-tolyl-1H-pyrazol-5-yl)-3-(2-fluoro-4-(3-oxo-3,4-dihydropyrido[3,2-b]pyrazin-8-yloxy)phenyl)urea] here?
**A.** < 100 nM

**Q.** Which IC50 does the source give for `CC(C)(C)c1cc(NC(=O)Nc2ccc(Oc3ccnc4[nH]c(=O)cnc34)cc2F)n(-c2ccccc2)n1` [AA-019, 1-(3-tert-butyl-1-phenyl-1H-pyrazol-5-yl)-3-(2-fluoro-4-(3-oxo-3,4-dihydropyrido[3,2-b]pyrazin-8-yloxy)phenyl)urea] here?
**A.** < 100 nM

**Q.** With `O=C(Nc1ccc(Oc2ccnc3[nH]c(=O)cnc23)cc1)Nc1ccc(Cl)c(C(F)(F)F)c1` [AA-020, 1-(4-chloro-3-(trifluoromethyl)phenyl)-3-(4-(3-oxo-3,4-dihydropyrido[2,3-b]pyrazin-8-yloxy)phenyl)urea] as the compound, how does the IC50 read?
**A.** < 100 nM

**Q.** `Nc1nc2nccc(Oc3ccc(NC(=O)Nc4cc(C(F)(F)F)ccc4F)c(F)c3)c2[nH]c1=O` [AA-022, 1-(4-(3-amino-2-oxo-1,2-dihydropyrido[2,3-b]pyrazin-8-yloxy)-2-fluorophenyl)-3-(2-fluoro-5-(trifluoromethyl)phenyl)urea] was tested. Which IC50 did it give?
**A.** < 1000 nM and 100 to 1000 nM

**Q.** Which IC50 does the source give for `CSc1cc(Oc2ccnc3[nH]c(=O)cnc23)ccc1NC(=O)Nc1ccc(Cl)c(C(F)(F)F)c1` [AA-023] here?
**A.** < 100 nM

**Q.** `CSc1cc(Oc2ccnc3[nH]c(=O)cnc23)ccc1NC(=O)Nc1cc(C(F)(F)F)ccc1F` [AA-024, 1-(2-fluoro-5-(trifluoromethyl)phenyl)-3-(2-(methylthio)-4-(3-oxo-3,4-dihydropyrido[3,2-b]pyrazin-8-yloxy)phenyl)urea] was tested. Which IC50 did it give?
**A.** < 100 nM

**Q.** Which IC50 does the source give for `O=C(Nc1ccc(Cl)c(C(F)(F)F)c1)Nc1ccc(Oc2ccnc3[nH]c(=O)cnc23)cc1F` [AA-025, 1-(4-Chloro-3-(trifluoromethyl)phenyl)-3-(2-fluoro-4-(3-oxo-3,4-dihydropyrido[2,3-b]pyrazin-8-yloxy)phenyl)urea] here?
**A.** < 100 nM

**Q.** How did the IC50 turn out when `O=C(Nc1ccc(Oc2ccnc3[nH]c(=O)cnc23)cc1F)Nc1cc(C(F)(F)F)ccc1F` [AA-026, 1-(2-Fluoro-5-(trifluoromethyl)phenyl)-3-(2-fluoro-4-(3-oxo-3,4-dihydropyrido[2,3-b]pyrazin-8-yloxy)phenyl)urea] was run?
**A.** < 100 nM

**Q.** `O=C(Nc1ccc(Sc2ccnc3[nH]c(=O)cnc23)cc1)Nc1cc(C(F)(F)F)ccc1F` [AA-027, 1-(2-Fluoro-5-(trifluoromethyl)phenyl)-3-(4-(3-oxo-3,4-dihydropyrido[2,3-b]pyrazin-8-ylthio)phenyl)urea] was tested. Which IC50 did it give?
**A.** < 100 nM

**Q.** For `Cc1nc2c(Oc3ccc(NC(=O)Nc4cc(C(F)(F)F)ccc4F)c(F)c3)ccnc2[nH]c1=O` [AA-028, 1-(2-Fluoro-4-(2-methyl-3-oxo-3,4-dihydropyrido[2,3-b]pyrazin-8-yloxy)phenyl)-3-(2-fluoro-5-(trifluoromethyl)phenyl)urea], which IC50 is on record?
**A.** < 100 nM

**Q.** With `CC(C)(C)c1cccc(C(=O)Nc2cccc(Oc3ccnc4ncc(=O)[nH]c34)c2)c1` [AA-029, 3-tert-butyl-N-(3-(2-oxo-1,2-dihydropyrido[2,3-b]pyrazin-8-yloxy)phenyl)benzamide] as the compound, how does the IC50 read?
**A.** < 100 nM

**Q.** For `O=C(Nc1cccc(Oc2ccnc3ncc(=O)[nH]c23)c1)c1cccc(OC(F)(F)F)c1` [AA-030, N-(3-(2-oxo-1,2-dihydropyrido[2,3-b]pyrazin-8-yloxy)phenyl)-3-(trifluoromethoxy)benzamide], which IC50 is on record?
**A.** < 1000 nM and 100 to 1000 nM

**Q.** Which IC50 does the source give for `Cc1ccc(-n2nc(C(C)(C)C)cc2NC(=O)Nc2cccc(Oc3ccnc4ncc(=O)[nH]c34)c2)cc1` [AA-031, 1-(3-tert-butyl-1-p-tolyl-1H-pyrazol-5-yl)-3-(3-(2-oxo-1,2-dihydropyrido[2,3-b]pyrazin-8-yloxy)phenyl)urea] here?
**A.** < 1000 nM and 100 to 1000 nM

**Q.** For `O=C(Nc1cccc(Oc2ccnc3ncc(=O)[nH]c23)c1)Nc1cc(C(F)(F)F)ccc1F` [AA-032, 1-(2-fluoro-5-(trifluoromethyl)phenyl)-3-(3-(2-oxo-1,2-dihydropyrido[2,3-b]pyrazin-8-yloxy)phenyl)urea], which IC50 is on record?
**A.** < 100 nM

**Q.** Which IC50 does the source give for `CC(C)(C)c1cc(NC(=O)Nc2ccc(Oc3ccnc4ncc(=O)[nH]c34)c3ccccc23)n(-c2ccccc2)n1` [AA-034, 1-(3-tert-butyl-1-phenyl-1H-pyrazol-5-yl)-3-(4-(2-oxo-1,2-dihydropyrido[2,3-b]pyrazin-8-yloxy)naphthalen-1-yl)urea] here?
**A.** < 1000 nM and 100 to 1000 nM
